This note sets out measurements from patent US20260297060A1, “COMPOUNDS FOR THE DEGRADATION OF MUTANT BRAF” (C4 THERAPEUTICS, INC., priority 2023, published 2026).

Read-outs that look alike come from different tables or passages of the source.

The target of experiment [1] is T1, BRAF V600E (Homo sapiens, UniProt P15056+Q96SW2, V600E).
T1 construct: knock-in of the HiBiT tag to the endogenous BRAF V600E locus; host or cells: A375.10 (A375 clonal line, CRISPR HiBiT knock-in at the endogenous BRAF V600E locus)
The experiment in a line: BRAF V600E HiBiT Degradation Assay. The conditions noted are these: A375.10 cells, BRAF V600E. The format is cell-based. The protocol:
Compounds of this invention were tested for degradation of mutant BRAF V600E using the HiBiT assay, a luminescence-based assay for quantification of cellular protein levels using the Nano-Glo® HiBiT Lytic Detection System (Catalog No. N3050, Promega, Madison, WI USA). This assay utilizes the HiBiT tag on a protein of interest, which creates a luminescent signal in the presence of a complementing peptide and its substrate, the quantification of which is proportional to the amount of HiBiT-tagged protein in the cell.
The cell line A375, which is homozygous for the BRAF V600E mutation, was purchased from ATCC (Catalog No. CRL-1619, Manassas, VA, USA). A375 cells were engineered to express HiBiT tagged BRAF V600E by CRISPR knock-in of the HiBiT tag to the endogenous BRAF V600E locus, followed by selection of a clonal population containing the appropriate knock-in (referred to here as cell line A375.10). A375.10 cells were maintained at 37° C. in an atmosphere of 5% CO2 in Dulbecco's modified Eagle Medium (DMEM) with high glucose (Catalog No. 11965092), supplemented with 10% fetal bovine serum (FBS; Catalog No. 10437036), and 10 mM HEPES (Catalog No. 15630130), all obtained from Thermofisher Scientific (Waltham, MA, USA). Cell culture flasks and 384-well microplates were acquired from VWR (Radnor, PA, USA).
Test compounds were prepared by dissolving neat compounds in DMSO (Catalog No. D8418, Sigma-Aldrich, Inc., St. Louis, MO, USA) to generate 10 mM stock solutions, which were serially diluted (half log) in DMSO to generate an 11-point dose series (1000× final treatment concentration) in a 384-Well Low Dead Volume Microplate (Catalog No. LP-0200, Labcyte, San Jose, CA, USA). Using the Echo 550 Acoustic Liquid Handler (Labcyte), 30 nL of serially diluted compound solutions were dispensed in duplicate to 384-well TC-treated microplates (Catalog No. 3571, Corning, Glendale, CA, USA) and 30 nL of DMSO was dispensed to control wells. A375.10 cells resuspended in growth media without phenol red (Catalog No. 21063-029, Thermofisher Scientific) were then added to 384-well plates containing the 11-point dose series of compounds in duplicate (maximum 10 μM concentration for final treatment) at a density of 12,000 cells/well in 30 μl. Plates were then spun briefly, and cells were incubated with compound at 37° C. for 2 hours, 6 hours, or 24 hours.
Following the appropriate treatment time, Nano-Glo® HiBiT Lytic Assay reagents were added to the cells per the manufacturer's instructions by adding 30 μl of reagent per well, and the luminescence signal was acquired by plate reader. Cells treated with DMSO only (no test compound treatment) were used as the negative control (N). Media only (no cells added) with Nano-Glo reagent addition was used as the background or positive control (P). The percent response of compound treated samples were calculated by subtracting out the background signal (P) and normalizing to the DMSO control (N) as follows.
% Response=100×(Treated Signal−Average (P))/(Average (N)−Average (P)).
Data were analyzed with a 4-parameter logistic fit to generate sigmoidal dose-response curves. The DC50 is the concentration of compound at which 50% of the cellular BRAF V600E has been degraded. The Emax, or maximum effect of each compound, represents the amount of residual protein remaining in the cell following compound treatment. The IP, or inflection point of the dose-response curve, is the concentration of compound at which 50% of the observed degradation response is achieved.
The experiment was conducted at least once for each compound. If the experiment was conducted multiple times, the data shown in the table is the average of the two or more experiments.

Experiment [2] has as its system A375-NRAS^Q61K cells. The experiment in a line: CTGlo Cell Viability Assay, A375-NRAS^Q61K (A375.11) cells, 96 hours. Type of experiment: cell-based, human. To be noted: A375.11 (A375-NRAS^Q61K) cells. The method, then: Compounds of this invention were tested for their effect on the viability of A375-NRAS^Q61K cells by quantification of ATP using the CellTiter-Glo® 2.0 Cell Viability Assay (Catalog No. G9243, Promega, Madison, WI, USA). This assay produces a luminescent signal in the presence of ATP, which is indicative of metabolically active cells, making the luminescence readout proportional to the number of viable cells.
A375-NRAS^Q61K cells (harboring BRAF homozygous V600E mutation and NRAS homozygous Q61K mutation) were purchased from ATCC (Catalog No. CRL-1619IG-2, Manassas, VA, USA). A375-NRAS^Q61K cells (also referred to here as A375.11) were maintained at 37° C. in an atmosphere of 5% CO2 in Dulbecco's modified Eagle Medium (DMEM) with high glucose (Catalog No. 11965092), supplemented with 10% fetal bovine serum (FBS; Catalog No. 10437036), and 10 mM HEPES (Catalog No. 15630130), all obtained from Thermofisher Scientific (Waltham, MA, USA). Cell culture flasks and 384-well microplates were acquired from VWR (Radnor, PA, USA).
Test compounds were prepared by dissolving neat compounds in DMSO (Catalog No. D8418, Sigma-Aldrich, Inc., St. Louis, MO, USA) to generate 10 mM stock solutions, which were serially diluted (half log) in DMSO to generate an 11-point dose series (1000× final treatment concentration) in a 384-Well Low Dead Volume Microplate (Catalog No. LP-0200, Labcyte, San Jose, CA, USA). Using the Echo 550 Acoustic Liquid Handler (Labcyte), 50 nL of serially diluted compound solutions were dispensed in duplicate to 384-well TC-treated microplates (Catalog No. 3571, Corning, Glendale, CA, USA) and 50 nL of DMSO was dispensed to control wells. A375-NRAS^Q61K cells were resuspended in growth media and added to 384-well plates containing a […] of compounds in duplicate (maximum 10 μM concentration for final treatment) at a density of 250 cells/well in 50 μl. Cells were also plated to a 384-well plate with no compound treatment, to which CellTiter-Glo® reagent was added and luminescence was read right after plating to act as a baseline signal at time of plating (To). Plates treated with compound were then spun briefly, and cells were incubated with compound at 37° C. for 96 hours.
After 96 hours compound treatment, CellTiter-Glo® reagent was added to the cells at 25 μl per well and luminescence was read out on the PHERAstar plate reader (BMG Labtech, Ortenberg, Germany). Cells treated with DMSO only (no test compound treatment) were used as the negative control (N). DMSO treated cells with no CellTiter-Glo® reagent added were used as the background or positive control (P). Viability was determined by subtracting out the average background signal (P) and normalized to the average untreated signal (N) set at 100%.
Data were analyzed with a 4-parameter logistic fit to generate sigmoidal dose-response curves. The half-maximal inhibition of cell growth (GI50) is the concentration at which the fitted curve crosses 50%. The Emax, or maximum effect of each compound, represents the lowest % viability achieved following compound treatment.

Where [3] appears, read: 2 hours, inflection point, read-out: HiBiT-Degradation A375.10 BRAF 2 hours IP.
The mark [4] stands for this setting: 2 hours, read-out: HiBiT-Degradation A375.10 BRAF 2 hours DC50.
Where [5] appears, read: 2 hours, residual protein remaining, read-out: HiBiT-Degradation A375.10 BRAF 2 hours Emax.
Where [6] appears, read: Homo sapiens, 96 h, lowest % viability achieved.
The mark [7] stands for this setting: 2 hours, residual protein remaining.

T1 sequence (P15056 whole entry V600E): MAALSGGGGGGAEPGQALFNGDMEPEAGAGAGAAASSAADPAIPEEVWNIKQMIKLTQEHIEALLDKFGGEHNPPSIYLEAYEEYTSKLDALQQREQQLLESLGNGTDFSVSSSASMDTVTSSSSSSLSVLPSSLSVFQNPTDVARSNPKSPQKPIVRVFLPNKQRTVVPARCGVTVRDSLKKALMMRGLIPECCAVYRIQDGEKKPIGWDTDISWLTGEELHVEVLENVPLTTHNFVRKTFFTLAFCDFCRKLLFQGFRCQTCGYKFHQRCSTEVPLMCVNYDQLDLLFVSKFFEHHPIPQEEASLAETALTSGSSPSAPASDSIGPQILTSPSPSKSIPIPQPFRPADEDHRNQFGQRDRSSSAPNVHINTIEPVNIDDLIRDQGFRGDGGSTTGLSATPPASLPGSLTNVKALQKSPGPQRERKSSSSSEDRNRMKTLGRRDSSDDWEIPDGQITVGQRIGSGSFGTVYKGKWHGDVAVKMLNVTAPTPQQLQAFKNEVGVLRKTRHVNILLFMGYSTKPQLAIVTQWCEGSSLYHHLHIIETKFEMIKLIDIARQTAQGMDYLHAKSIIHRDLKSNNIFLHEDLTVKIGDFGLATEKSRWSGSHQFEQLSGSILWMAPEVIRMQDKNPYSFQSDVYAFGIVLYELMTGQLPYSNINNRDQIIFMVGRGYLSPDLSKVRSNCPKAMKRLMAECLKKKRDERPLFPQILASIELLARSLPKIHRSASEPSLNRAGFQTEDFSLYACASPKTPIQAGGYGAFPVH
T1 sequence (Q96SW2 whole entry): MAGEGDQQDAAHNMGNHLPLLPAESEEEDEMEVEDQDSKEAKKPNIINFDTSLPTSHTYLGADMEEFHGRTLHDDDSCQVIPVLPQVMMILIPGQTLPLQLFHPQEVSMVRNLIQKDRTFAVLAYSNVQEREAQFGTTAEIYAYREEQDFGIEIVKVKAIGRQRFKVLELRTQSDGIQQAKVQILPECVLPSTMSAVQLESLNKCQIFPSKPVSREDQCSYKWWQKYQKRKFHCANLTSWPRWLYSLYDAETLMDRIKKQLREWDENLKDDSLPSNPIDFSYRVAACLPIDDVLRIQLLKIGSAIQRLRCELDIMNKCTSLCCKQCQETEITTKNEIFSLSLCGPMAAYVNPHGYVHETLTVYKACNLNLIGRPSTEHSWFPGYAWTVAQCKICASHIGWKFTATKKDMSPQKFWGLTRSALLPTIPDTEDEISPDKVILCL
T1 sequence (Q16531 whole entry partner): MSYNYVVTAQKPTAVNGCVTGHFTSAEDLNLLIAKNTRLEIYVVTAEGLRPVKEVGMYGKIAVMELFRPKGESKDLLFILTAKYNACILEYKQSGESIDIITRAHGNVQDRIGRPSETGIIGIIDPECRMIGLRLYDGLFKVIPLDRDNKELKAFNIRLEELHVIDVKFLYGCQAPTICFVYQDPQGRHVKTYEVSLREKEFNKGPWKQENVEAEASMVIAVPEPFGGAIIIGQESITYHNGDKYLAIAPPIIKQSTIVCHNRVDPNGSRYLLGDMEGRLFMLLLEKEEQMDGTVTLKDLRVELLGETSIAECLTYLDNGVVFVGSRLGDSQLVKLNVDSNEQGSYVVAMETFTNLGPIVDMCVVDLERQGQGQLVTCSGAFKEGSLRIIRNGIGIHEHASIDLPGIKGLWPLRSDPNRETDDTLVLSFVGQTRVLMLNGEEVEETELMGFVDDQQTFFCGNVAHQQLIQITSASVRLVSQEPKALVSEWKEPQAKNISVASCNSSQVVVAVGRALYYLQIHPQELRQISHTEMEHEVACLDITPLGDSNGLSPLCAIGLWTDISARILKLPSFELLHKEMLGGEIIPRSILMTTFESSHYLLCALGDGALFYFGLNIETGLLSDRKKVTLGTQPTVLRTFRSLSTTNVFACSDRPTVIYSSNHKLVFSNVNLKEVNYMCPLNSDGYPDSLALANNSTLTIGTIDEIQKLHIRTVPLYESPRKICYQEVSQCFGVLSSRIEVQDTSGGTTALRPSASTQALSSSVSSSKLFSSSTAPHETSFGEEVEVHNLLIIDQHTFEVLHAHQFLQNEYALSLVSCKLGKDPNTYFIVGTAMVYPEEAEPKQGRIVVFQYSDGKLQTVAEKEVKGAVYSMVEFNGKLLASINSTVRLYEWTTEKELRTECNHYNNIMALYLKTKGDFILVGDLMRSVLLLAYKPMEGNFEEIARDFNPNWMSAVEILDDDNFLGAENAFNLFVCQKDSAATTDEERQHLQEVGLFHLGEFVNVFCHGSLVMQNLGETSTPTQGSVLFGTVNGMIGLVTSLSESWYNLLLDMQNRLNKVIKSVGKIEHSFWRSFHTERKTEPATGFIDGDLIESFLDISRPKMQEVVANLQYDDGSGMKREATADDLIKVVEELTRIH

`CCN(C)S(=O)(=O)Nc1ccc(F)c(Oc2ccc3ncc(OC4CCN(C5CCC(c6cc7c(cc6F)c(N6CCC(=O)NC6=O)nn7C)CC5)CC4)nc3c2)c1C#N` (single isomer, unassigned) [Compound 124, 7-[2-cyano-3-[[ethyl(methyl)sulfamoyl]amino]-6-fluoro-phenoxy]-2-[[1-[4-[3-(2,4-dioxohexahydropyrimidin-1-yl)-5-fluoro-1-methyl-indazol-6-yl]cyclohexyl]-4-piperidyl]oxy]quinoxaline]: the results for the DC50 in experiment [1] (setting [3]) and in experiment [1] (setting [4]) were below 1000 nM and 1000 to 10000 nM, respectively. Moreover, the Emax is below 50% in experiment [1] (setting [5]) and 50 to 90% in experiment [2] (setting [6]). The compound also had a 50% growth inhibitory concentration (GI50) in experiment [2] (Homo sapiens, 96 h) above 10000 nM.

In the case of `CCN(C)S(=O)(=O)Nc1ccc(F)c(Oc2ccc3ncn([C@H]4CO[C@@]5(CCN(C6CCC(c7cc8c(cc7F)c(N7CCC(=O)NC7=O)nn8C)CC6)C5)C4)c(=O)c3c2)c1C#N` (single isomer, unassigned) [Compound 293], the DC50 in experiment [1] (setting [4]) was below 1000 nM. In addition, in experiment [1] (setting [7]), the “HiBiT-Degradation A375.10 BRAF 2 hours Emax” value is recorded as “*** (<=50%)”. Moreover, in experiment [2], the GI50 was below 1000 nM. The “CTGlo A375.11 96 hours Emax” value in experiment [2] (lowest % viability achieved) was “** (<90% and >50%)”.

In the case of `N#Cc1c(NS(=O)(=O)C2CCCC2)ccc(F)c1Oc1ccc2ncn([C@H]3COC4(CCN(C5CCC(c6ccc(NC7CCC(=O)NC7=O)cc6F)CC5)CC4)C3)c(=O)c2c1` (single isomer, unassigned) [Compound 136], the DC50 in experiment [1] (setting [3]) and in experiment [1] (setting [4]) was below 1000 nM in each case. The Emax in experiment [1] (setting [5]) and in experiment [2] (setting [6]) was below 50% in each case. This compound also yielded a concentration for 50% growth inhibition (GI50) in experiment [2] (Homo sapiens, 96 h) below 1000 nM.

With `CCN(C)S(=O)(=O)Nc1ccc(F)c(Oc2ccc3ncn(C4CC5(CCN(C6CC7(C6)CN(c6cc8c(cc6F)c(N6CCC(=O)NC6=O)nn8C)C7)C5)C4)c(=O)c3c2)c1C#N` (single isomer, unassigned) [Compound 301, 6-[2-cyano-3-[[ethyl(methyl)sulfamoyl]amino]-6-fluoro-phenoxy]-3-[6-[2-[3-(2,4-dioxohexahydropyrimidin-1-yl)-5-fluoro-1-methyl-indazol-6-yl]-2-azaspiro[3.3]heptan-6-yl]-6-azaspiro[3.4]octan-2-yl]-4-oxo-quinazoline], the DC50 in experiment [1] (setting [3]) and in experiment [1] (setting [4]) was below 1000 nM each time. Also, the Emax in experiment [1] (setting [5]) and in experiment [2] (setting [6]) was 50 to 90% throughout. Moreover, the GI50 in experiment [2] (Homo sapiens, 96 h) is below 1000 nM.

For the compound `CN(CCO)S(=O)(=O)Nc1ccc(F)c(Oc2ccc3ncc(C4CC5(C4)CN(C4CCC(c6cc7c(cc6F)c(N6CCC(=O)NC6=O)nn7C)CC4)C5)nc3c2)c1C#N` (single isomer, unassigned) [Compound 321, 7-[2-cyano-6-fluoro-3-[[2-hydroxyethyl(methyl)sulfamoyl]amino]phenoxy]-2-[2-[4-[3-(2,4-dioxohexahydropyrimidin-1-yl)-5-fluoro-1-methyl-indazol-6-yl]cyclohexyl]-2-azaspiro[3.3]heptan-6-yl]quinoxaline], the DC50 is below 1000 nM in experiment [1] (setting [3]) and 1000 to 10000 nM in experiment [1] (setting [4]). In addition, the “HiBiT-Degradation A375.10 BRAF 2 hours Emax” value in experiment [1] (setting [7]) is given as “* (>=90%)”. Also, in experiment [2] (Homo sapiens, 96 h), the GI50 was above 10000 nM. The compound further displayed an Emax in experiment [2] (setting [6]) of 50 to 90%.

For `CCN(C)S(=O)(=O)Nc1ccc(F)c(Oc2ccc3ncn([C@@H]4CO[C@@]5(CCN(C6CCC(c7cc8c(cc7F)c(N7CCC(=O)NC7=O)nn8C)CC6)C5)C4)c(=O)c3c2)c1C#N` (single isomer, unassigned) [Compound 286], the DC50 in experiment [1] (setting [3]) and in experiment [1] (setting [4]) was below 1000 nM in each case. For the same compound, the Emax in experiment [1] (setting [5]) and in experiment [2] (setting [6]) was below 50% each time. In addition, the “HiBiT-Degradation A375.10 BRAF 24 hours Emax” value in experiment [1] (HiBiT, 24 hours) is on record as “*** (<=50%)”. Besides, the GI50 in experiment [2] (Homo sapiens, 96 h) is below 1000 nM.

Consider `CCN(C)S(=O)(=O)Nc1ccc(F)c(Nc2ccc3ncn([C@H]4COC5(CCN(C6CCC(c7ccc(NC8CCC(=O)NC8=O)cc7F)CC6)CC5)C4)c(=O)c3c2F)c1C#N` (single isomer, unassigned) [Compound 98], for which the DC50 in experiment [1] (6 hours, inflection point, read-out: HiBiT-Degradation A375.10 BRAF 6 hours IP) is below 1000 nM; in experiment [1] (6 hours, read-out: HiBiT-Degradation A375.10 BRAF 6 hours DC50), below 1000 nM; in experiment [1] (HiBiT, 24 hours, read-out: HiBiT-Degradation A375.10 BRAF 24 hours DC50) it was below 1000 nM; in experiment [1] (HiBiT, 24 hours, read-out: HiBiT-Degradation A375.10 BRAF 24 hours IP), below 1000 nM. Also, the Emax in experiment [1] (6 hours, residual protein remaining, read-out: HiBiT-Degradation A375.10 BRAF 6 hours Emax) was below 50%; in experiment [1] (HiBiT, 24 hours, read-out: HiBiT-Degradation A375.10 BRAF 24 hours Emax) it was below 50%.

In general, GI50 refers to the concentration at which growth is held to half of that of the control. Lower therefore signals greater sensitivity of the cells.
